Broadly, the pIC50 is the IC50 on a negative log10 scale, so that one unit is a factor of ten.

pIC50: −log10 of the molar value. Structures can show the parent of a compound that is named as a salt.

T1 sequence (P43490 whole entry): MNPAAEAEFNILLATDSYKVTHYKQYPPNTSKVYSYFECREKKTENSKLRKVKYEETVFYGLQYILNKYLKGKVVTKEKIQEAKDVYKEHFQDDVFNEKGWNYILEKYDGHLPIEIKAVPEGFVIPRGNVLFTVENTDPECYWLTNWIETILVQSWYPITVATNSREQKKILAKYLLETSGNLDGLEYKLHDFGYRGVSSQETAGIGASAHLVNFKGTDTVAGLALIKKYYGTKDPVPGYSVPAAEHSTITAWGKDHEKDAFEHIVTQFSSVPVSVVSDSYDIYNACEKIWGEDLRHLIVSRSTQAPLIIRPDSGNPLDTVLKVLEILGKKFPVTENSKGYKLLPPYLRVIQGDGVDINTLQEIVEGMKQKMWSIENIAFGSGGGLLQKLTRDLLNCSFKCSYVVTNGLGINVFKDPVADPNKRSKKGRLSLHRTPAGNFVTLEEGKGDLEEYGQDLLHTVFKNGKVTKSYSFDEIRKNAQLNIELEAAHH

The assay has as its target T1, Recombinant NAMPT protein (Homo sapiens, UniProt P43490).
T1 construct: purchased BPS bioscience # 7176-1
Briefly: NAMPT enzyme inhibition assay (BPS bioscience NAMPT Inhibitor Screening Assay Kit, fluorescence). It is filed as biochemical. To be noted: 30 min pre-incubation, 2 h at 30°C, compound 1000 nM to 3 nM, n=2. On the procedure:
The NAMPT enzyme activity inhibition ability of the compound of the present invention was evaluated using the NAMPT Inhibitor Screening Assay Kit (# 7176-1) from BPS bioscience. Recombinant NAMPT protein was added to each well of a black 96-well plate, and dilution buffer was added to a blank well instead of NAMPT protein. A 5 x concentrated compound solution was added and pre-incubated at room temperature (approximately 22°C) for 30 minutes before the start of the reaction so that the compound and protein might bind before the enzyme reaction. At this time, the concentration of NAMPT protein was adjusted and used according to the enzyme activity of each protein lot within the final concentration range of 4-10 ng/µl, and the test compound was serially diluted at a ratio of 1:3 from 1000 nM to 3 nM, and experiments were conducted with n=2 for about seven concentrations. A 2 x concentrated test buffer containing ATP (final concentration of 20 µM), nicotinamide (final concentration of 20 µM), phosphoribosyl pyrophosphate (PRPP, final concentration of 40 µM), and ethanol (final concentration of 1.5%) was added, and the plate was incubated at 30°C for two hours, after which the fluorescence of a resulting reaction product was measured with excitation of 340 nm and emission of 460 nm. The NAMPT enzyme activity (%) was calculated by subtracting the measurement value of the blank well without NAMPT protein from the measurement value of all wells, and then taking the measurement value of the control well without the compound as 100%.
For `Cn1ccc(CS(=O)(=O)c2ccc(C(=O)NCCc3c[nH]c4ccncc34)cc2C#Cc2ccc(F)cc2)n1` [compound 3, N-(2-(1H-pyrrolo[3,2-c]pyridin-3-yl)ethyl)-3-((4-fluorophenyl)ethynyl)-4-(((1-methyl-1H-pyrazol-3-yl)methyl)sulfonyl)benzamide], the pIC50 is more than 6.30.
Turning to `O=C(NCCCc1cn[nH]c1)c1ccc(S(=O)(=O)Cc2ccn(-c3ccc(C(F)(F)F)cc3)n2)c(C#Cc2ccc(F)cc2)c1` [compound 4, N-(3-(1H-pyrazol-4-yl)propyl)-3-((4-fluorophenyl)ethynyl)-4-(((1-(4-(trifluoromethyl)phenyl)-1H-pyrazol-3-yl)methyl)sulfonyl)benzamide], the pIC50 was 6.00 to 6.30.
For the compound `Cc1cccc(CS(=O)(=O)c2ccc(C(=O)NCCCc3cn[nH]c3)cc2C#Cc2ccc(F)cc2)c1C` [compound 5, N-(3-(1H-pyrazol-4-yl)propyl)-4-((2,3-dimethylbenzyl)sulfonyl)-3-((4-fluorophenyl)ethynyl)benzamide], the negative-log IC50 (pIC50) was not above 6.00.
For the compound `CNS(=O)(=O)c1ccc(C(=O)NCCCc2cn[nH]c2)cc1C#Cc1ccc(F)cc1` [compound 6, N-(3-(1H-pyrazol-4-yl)propyl)-3-((4-fluorophenyl)ethynyl)-4-(N-methylsulfamoyl)benzamide], the pIC50 is not above 6.00.
As to `Cn1ccc(CS(=O)(=O)c2ccc(C(=O)NCCc3ccc([N+](=O)[O-])nc3)cc2C#Cc2ccc(F)cc2)n1` [compound 7, 3-((4-fluorophenyl)ethynyl)-4-(((1-methyl-1H-pyrazol-3-yl)methyl)sulfonyl)-N-(2-(6-nitropyridin-3-yl)ethyl)benzamide], the pIC50 was not above 6.00.
Turning to `Cn1ccc(CS(=O)(=O)c2ccc(C(=O)NCCc3ccc(N)nc3)cc2C#Cc2ccc(F)cc2)n1` [compound 8, N-(2-(6-aminopyridin-3-yl)ethyl)-3-((4-fluorophenyl)ethynyl)-4-(((1-methyl-1H-pyrazol-3-yl)methyl)sulfonyl)benzamide], the pIC50 was not above 6.00.
Regarding `O=C(NCCCc1cn[nH]c1)c1ccc(S(=O)(=O)Cc2cccc(C(F)(F)F)c2)c(C#Cc2ccc(F)cc2)c1` [compound 9, N-(3-(1H-pyrazol-4-yl)propyl)-3-((4-fluorophenyl)ethynyl)-4-((3-(trifluoromethyl)benzyl)sulfonyl)benzamide], the negative logarithm of the IC50 (pIC50) is 6.00 to 6.30.
Regarding `Cn1ccc(CNS(=O)(=O)c2ccc(C(=O)NCc3ccn4ccnc4c3)cc2C#Cc2ccc(F)cc2)n1` [compound 115, 3-((4-fluorophenyl)ethynyl)-N-(imidazo[1,2-a]pyridin-7-ylmethyl)-4-(N-((1-methyl-1H-pyrazol-3-yl)methyl)sulfamoyl)benzamide], the pIC50 was more than 6.30.
As to `O=C(NCc1ccn2ccnc2c1)c1ccc(S(=O)(=O)Cc2ccn(C3CCNCC3)n2)c(C#Cc2ccc(F)cc2)c1` [compound 122, 3-((4-fluorophenyl)ethynyl)-N-(imidazo[1,2-a]pyridin-7-ylmethyl)-4-(((1-(piperidin-4-yl)-1H-pyrazol-3-yl)methyl)sulfonyl)benzamide], the pIC50 was not above 6.00.
Turning to `Nc1cccc(CS(=O)(=O)c2ccc(C(=O)NCc3ccn4ccnc4c3)cc2C#Cc2ccc(F)cc2)c1` [compound 147], the pIC50 is more than 6.30.
On to `Cn1ccc(CS(=O)(=O)c2ccc(C(=O)NCc3ccn4ccnc4c3)cc2C#Cc2ccc(C(=O)NCCN3CCNCC3)cc2)n1` [compound 193, N-(imidazo[1,2-a]pyridin-7-ylmethyl)-4-(((1-methyl-1H-pyrazol-3-yl)methyl)sulfonyl)-3-((4-((2-(piperazin-1-yl)ethyl)carbamoyl)phenyl)ethynyl)benzamide], for which the pIC50 was not above 6.00.
For `Cn1ccc(CS(=O)(=O)c2ccc(C(=O)NCc3ccn4ccnc4c3)cc2C#Cc2ccc3c(c2)CCNC3)n1` [compound 231, N-(imidazo[1,2-a]pyridin-7-ylmethyl)-4-(((1-methyl-1H-pyrazol-3-yl)methyl)sulfonyl)-3-((1,2,3,4-tetrahydroisoquinolin-6-yl)ethynyl)benzamide], the pIC50 is more than 6.30.
For the compound `Nc1ccc(-n2ccc(CS(=O)(=O)c3ccc(C(=O)NCc4ccn5ccnc5c4)cc3C#Cc3ccc(F)cc3)n2)cc1` [compound 233, 4-(((1-(4-aminophenyl)-1H-pyrazol-3-yl)methyl)sulfonyl)-3-((4-fluorophenyl)ethynyl)-N-(imidazo[1,2-a]pyridin-7-ylmethyl)benzamide], the pIC50 was more than 6.30.
For the compound `COc1cc(C#Cc2cc(C(=O)NCCCc3cn[nH]c3)ccc2S(=O)(=O)Cc2ccn(C)n2)ccc1C` [compound 235, N-(3-(1H-pyrazol-4-yl)propyl)-3-((3-methoxy-4-methylphenyl)ethynyl)-4-(((1-methyl-1H-pyrazol-3-yl)methyl)sulfonyl)benzamide], the pIC50 is more than 6.30.
For `Cn1ccc(CS(=O)(=O)c2ccc(C(=O)NCCCc3cn[nH]c3)cc2C#Cc2ccc(OC(F)(F)F)cc2)n1` [compound 236, N-(3-(1H-pyrazol-4-yl)propyl)-4-(((1-methyl-1H-pyrazol-3-yl)methyl)sulfonyl)-3-((4-(trifluoromethoxy)phenyl)ethynyl)benzamide], the pIC50 is not above 6.00.
Regarding `Cn1ccc(CS(=O)(=O)c2ccc(C(=O)NCCCc3cn[nH]c3)cc2C#Cc2ccncc2)n1` [compound 237, N-(3-(1H-pyrazol-4-yl)propyl)-4-(((1-methyl-1H-pyrazol-3-yl)methyl)sulfonyl)-3-(pyridin-4-ylethynyl)benzamide], the pIC50 is more than 6.30.
As to `Cn1ccc(CS(=O)(=O)c2ccc(C(=O)NCc3ccc4nccn4c3)cc2C#Cc2ccc(N)cc2)n1` [compound 240, 3-((4-aminophenyl)ethynyl)-N-(imidazo[1,2-a]pyridin-6-ylmethyl)-4-(((1-methyl-1H-pyrazol-3-yl)methyl)sulfonyl)benzamide], the pIC50 was more than 6.30.
As for `Cn1ccc(CS(=O)(=O)c2ccc(C(=O)NCc3ccn4ccnc4c3)cc2C#Cc2ccc(C(=O)NCCN3CCCCC3)cc2)n1` [compound 242, N-(imidazo[1,2-a]pyridin-7-ylmethyl)-4-(((1-methyl-1H-pyrazol-3-yl)methyl)sulfonyl)-3-((4-((2-(piperidin-1-yl)ethyl)carbamoyl)phenyl)ethynyl)benzamide], the negative logarithm of the IC50 (pIC50) is 6.00 to 6.30.
With `Cn1ccc(CS(=O)(=O)c2ccc(C(=O)NCc3ccn4ccnc4c3)cc2C#Cc2ccc(N)nc2)n1` [compound 243, 3-((6-aminopyridin-3-yl)ethynyl)-N-(imidazo[1,2-a]pyridin-7-ylmethyl)-4-(((1-methyl-1H-pyrazol-3-yl)methyl)sulfonyl)benzamide], the pIC50 was more than 6.30.
`CN(C)c1ccc(C#Cc2cc(C(=O)NCCCc3cn[nH]c3)ccc2S(=O)(=O)Cc2ccn(C)n2)cc1` [compound 244, N-(3-(1H-pyrazol-4-yl)propyl)-3-((4-(dimethylamino)phenyl)ethynyl)-4-(((1-methyl-1H-pyrazol-3-yl)methyl)sulfonyl)benzamide]: the pIC50 is not above 6.00.
In the case of `Cn1ccc(CS(=O)(=O)c2ccc(C(=O)NCCCc3cn[nH]c3)cc2C#Cc2ccc(C3CCNCC3)cc2)n1` [compound 245, N-(3-(1H-pyrazol-4-yl)propyl)-4-(((1-methyl-1H-pyrazol-3-yl)methyl)sulfonyl)-3-((4-(piperidin-4-yl)phenyl)ethynyl)benzamide hydrochloride], the pIC50 was more than 6.30.

These data come from EP4722208A1, “NOVEL BENZAMIDE DERIVATIVE COMPOUND AND PHARMACEUTICAL COMPOSITION COMPRISING SAME” (Samjin Pharmaceutical Co., Ltd., priority 2023, dated 2024).
